We go through 48 molecules from patent US20060281695A1, “Control of parasites in animals by N-[(phenyloxy)phenyl]-1,1,1-trifluoromethanesulfonamide and N-[(phenylsulfanyl)phenyl]-1,1,1-trifluoromethanesulfonamide derivatives” (priority 2005, published 2006).

A word on the mortality: it is the share of the test organisms that died.

This data set has as its system cat flea (Ctenocephalides felis). Put plainly: Ctenocephalides felis adulticide assay: single dose screen on treated glass surface (% mortality at 1.26 μg/cm^2, 24 hours). Conditions: for Ctenocephalides felis Mortality (%) 24 h: in vivo; for mortality at 1.26 µg/cm2, 1.26 µg/cm2: Ctenocephalides felis, 24 h, read-out: Ctenocephalides felis Mortality (%) 24 h. The class given is in vivo. The protocol:
The LC50 value is the concentration, expressed as μg/cm^2, that was required to kill 50% of the sample of cat fleas on contact with the tested compound. Certain tests are also reported as the percent of a sample of cat fleas that were killed at a concentration of 1.26 μg/cm^2 (“% mortality”), for the compounds tested in this way.
b) Ctenocephalides felis Adulticide Assay: C.felis single dose screen
Mortality of fleas is the primary endpoint in the assay. […] The concentration chosen (1.26 μg/cm^2) is higher than that known to kill 90% of cat fleas (LC90) using the reference compound, permethrin.
The test species employed was the cat flea (Ctenocephalides felis). The strain used was obtained from external suppliers as pupae and held in the laboratory under testing conditions until the adults had emerged. Fifteen (15) fleas were used in a minimum of four replicates against a single concentration level (approximately 60 fleas). The insects were selected to be in the adult life stage, aged between 3 and 7 days post emergence.
The compounds to be tested were supplied as solids and were prepared in acetone as described below prior to testing. Samples were stored in a refrigerator (5±1° C.) unless otherwise specified.
During the mortality testing, the temperature was maintained at 25±1° C. Humidity was maintained at 75±5%. The base (area=159 mm^2) of a 100 mL glass Erlenmeyer (conical) flask provided the treatment surface. Flasks were pre-treated with Coatasil™ glass treatment to maximise bio-availability of test compounds by preventing them from binding to glass the surface. The base of the 100 mL Erlenmeyer flask was treated with 0.5 mL of test sample in acetone and gently swirled. This volume was sufficient to cover the base of the flask. Flasks were left to dry for 24 hours before flea exposure.
Adult cat fleas were placed into a sorting chamber, which allowed fleas to jump into the Erlenmeyer flasks. Fifteen (15) adult cat fleas were collected in each flask. The top of the flasks were then covered in Parafilm™ and small holes were made to allow gas exchange. A 0.5 mL volume of acetone as a solvent control was applied to the base of an Erlenmeyer flask and the testing proceeded in the same manner described above. […] Pooled 24 hour mortality data were converted to percentages and are summarized by Table 4, below.
In Table 7, provided below, are listed the Haemonchus contortus LD99 values (measured in micrograms/mL), the Ctenocephalides felis rapid screening values (measured in % mortality), the Ctenocephalides felis LC50 values (measured in micrograms/cm^2) and the Rhipicephalus sanguineus rapid screening values (measured in % mortality) for selected compounds in accordance with the present invention.

Consider `O=S(=O)(Nc1cc(C(F)(F)F)ccc1Sc1ccccc1Cl)C(F)(F)F` [Compound 64], for which the “Ctenocephalides felis Mortality (%) 24 h” value came out at 14%.
Still for that read-out and setting: under `O=S(=O)(Nc1cc(C(F)(F)F)ccc1Sc1ccc(F)cc1)C(F)(F)F` [Compound 65] stands 21%; under `COCN(c1ccc(Oc2ccccc2)cc1)S(=O)(=O)C(F)(F)F` [p4], 49%.
Turning to `O=S(=O)(N(Cc1ccccc1)c1ccc(Cl)cc1Oc1ccc(Cl)cc1Cl)C(F)(F)F` [Compound 92, N-benzyl-N-[4-chloro-2-(2,4-dichlorophenoxy)phenyl]-1,1,1-trifluoromethanesulfonamide], the mortality at 1.26 µg/cm2, 1.26 µg/cm2 was 57%.
As for `CCCC(=O)OCN(c1ccc(Cl)cc1Oc1ccccc1F)S(=O)(=O)C(F)(F)F` [Compound 89], the “Ctenocephalides felis Mortality (%) 24 h” value is recorded as 6%.
On the same count and under the same terms, the result for `CC(C)N(c1ccc(Cl)cc1Oc1ccc(Cl)cc1Cl)S(=O)(=O)C(F)(F)F` [Compound 86] reads 66%.
On the same count and under the same terms, under `O=S(=O)(Nc1ccc(Oc2ccc(Cl)cc2Cl)c(F)c1)C(F)(F)F` [p8] stands 4%; under `N#Cc1ccc(NS(=O)(=O)C(F)(F)F)c(Oc2cccc(C(F)(F)F)c2)c1` [Compound 60], 5%; under `COCN(c1ccc(Cl)cc1Oc1ccccc1F)S(=O)(=O)C(F)(F)F` [Compound 79], 60%.
Same read-out and setting: under `CN(c1ccc(Oc2ccccc2)cc1)S(=O)(=O)C(F)(F)F` [p2] stands 64%.
Consider `O=S(=O)(Nc1ccc(Cl)cc1Sc1ccccc1Cl)C(F)(F)F` [Compound 62], for which the “Ctenocephalides felis Mortality (%) 24 h” value turned out to be 25%.
Still for that read-out and setting: the result for `N#Cc1ccc(Oc2cc(Cl)ccc2NS(=O)(=O)C(F)(F)F)cc1` [Compound 56] reads 6%; that for `CC(C)(C)c1ccccc1Oc1cc(Cl)ccc1NS(=O)(=O)C(F)(F)F` [Compound 42], 88%.
For the molecule `O=S(=O)(Nc1ccc(Cl)cc1[S+]([O-])c1ccc(Cl)cc1)C(F)(F)F` (stereo not drawn) [Compound 23, N-[4-chloro-2-(4-(chlorophenyl)sulfinyl)phenyl]-1,1,1-trifluoromethanesulfonamide], the “Ctenocephalides felis Mortality (%) 24 h” value is recorded as 3%.
The same measure, in the same setting: under `CCOCN(c1ccc(Cl)cc1Oc1ccccc1F)S(=O)(=O)C(F)(F)F` [Compound 80] stands 9%.
Same read-out and setting: the result for `Cc1ccccc1Oc1cc(C#N)ccc1NS(=O)(=O)C(F)(F)F` [Compound 54] reads 5%; that for `O=S(=O)(Nc1cccc(Oc2ccc(Cl)cc2Cl)c1)C(F)(F)F` [Compound m6, N-[3-(2,4-dichlorophenoxy)phenyl]-1,1,1-trifuoromethanesulfonamide], 34%; that for `CCOCN(c1ccc(Oc2ccccc2)cc1)S(=O)(=O)C(F)(F)F` [p3], 72%.
On the same count and under the same terms, under `CC(C)c1ccccc1Oc1cc(Cl)ccc1NS(=O)(=O)C(F)(F)F` [Compound 39] stands 75%.
Turning to `O=S(=O)(Nc1cc(C(F)(F)F)ccc1Sc1ccccc1)C(F)(F)F` [Compound 63], the “Ctenocephalides felis Mortality (%) 24 h” value was determined as 10%.
With `O=S(=O)(Nc1ccc(Oc2ccc(Cl)cc2Cl)c(Cl)c1)C(F)(F)F` [Compound p7, N-[3-Chloro-4-(2,4-dichlorophenoxy)phenyl]-1,1,1-trifluoromethanesulfonamide], the mortality at 1.26 µg/cm2, 1.26 µg/cm2 was determined as 22%.
Regarding `O=S(=O)(Nc1ccc(Oc2ccc(Cl)cc2Cl)cc1C(F)(F)F)C(F)(F)F` [p6], the “Ctenocephalides felis Mortality (%) 24 h” value came out at 28%.
Same read-out and setting: the result for `CN(c1ccc(Cl)cc1Oc1ccccc1F)S(=O)(=O)C(F)(F)F` [Compound 77] reads 20%.
Same read-out and setting: under `N#Cc1ccc(NS(=O)(=O)C(F)(F)F)c(Oc2ccc(Cl)cc2Cl)c1` [Compound 52] stands 23%.
As for `CCOCN(c1cccc(Oc2ccc(Cl)cc2Cl)c1)S(=O)(=O)C(F)(F)F` [Compound m7, N-Ethoxymethyl-N-[3-(2,4-dichlorophenoxy)phenyl]-1,1,1-trifluoromethanesulfonamide], the mortality at 1.26 µg/cm2, 1.26 µg/cm2 came to 5%.
`O=S(=O)(Nc1cc(C(F)(F)F)ccc1Sc1ccc(Br)cc1)C(F)(F)F` [Compound 67]: the “Ctenocephalides felis Mortality (%) 24 h” value is reported as 5%.
Regarding `CC(C)(C)C(=O)OCN(c1ccc(Cl)cc1Oc1ccccc1F)S(=O)(=O)C(F)(F)F` [Compound 88], the “Ctenocephalides felis Mortality (%) 24 h” value is recorded as 73%.
The same measure, in the same setting: under `N#Cc1ccc(NS(=O)(=O)C(F)(F)F)c(Oc2ccc(F)c(F)c2)c1` [Compound 57] stands 2%.
Same read-out and setting: the result for `N#Cc1cccc(Oc2cc(Cl)ccc2NS(=O)(=O)C(F)(F)F)c1` [Compound 50] reads 14%.
`O=S(=O)(Nc1ccc(Cl)cc1Nc1ccc(Cl)cc1)C(F)(F)F` [Compound 91, N-[4-Chloro-2-(4-chlorophenylamino)-phenyl]-1,1,1-trifluoromethanesulphonamide]: the mortality at 1.26 µg/cm2, 1.26 µg/cm2 is 13%.
Turning to `O=S(=O)(Nc1ccc(Oc2ccccc2)cc1)C(F)(F)F` [p1], the “Ctenocephalides felis Mortality (%) 24 h” value turned out to be 84%.
The same measure, in the same setting: the result for `O=S(=O)(N(Cc1ccccc1)c1ccc(Cl)cc1Oc1ccccc1F)C(F)(F)F` [Compound 81] reads 1%; that for `COc1ccc(Oc2cc(Cl)ccc2NS(=O)(=O)C(F)(F)F)cc1` [Compound 49], 24%; that for `CCN(c1ccc(Cl)cc1Oc1ccccc1F)S(=O)(=O)C(F)(F)F` [Compound 78], 80%.
Still for that read-out and setting: the result for `O=S(=O)(Nc1ccc(Oc2ccc(Cl)cc2Cl)c(C(F)(F)F)c1)C(F)(F)F` [p9] reads 44%.
For the molecule `CC(C)(C)C(=O)OCN(c1ccc(Oc2ccccc2)cc1)S(=O)(=O)C(F)(F)F` [p5], the “Ctenocephalides felis Mortality (%) 24 h” value worked out at 54%.
The same measure, in the same setting: under `O=S(=O)(Nc1ccc(Cl)cc1Oc1ccccc1)C(F)(F)F` [Compound 40] stands 39%; under `O=S(=O)(Nc1cc(C(F)(F)F)ccc1Sc1ccccc1F)C(F)(F)F` [Compound 66], 20%; under `CC(C)N(c1ccc(Cl)cc1Oc1ccccc1F)S(=O)(=O)C(F)(F)F` [Compound 87], 24%.
As for `O=S(=O)(Nc1ccc(Cl)cc1Oc1ccccc1-c1ccccc1)C(F)(F)F` [Compound 74, N-[2-(Biphenyl-2-yloxy)-4-chlorophenyl]-1,1,1-trifluoromethanesulfonamide], the mortality at 1.26 µg/cm2, 1.26 µg/cm2 turned out to be 81%.
Regarding `CCN(c1ccc(Cl)cc1Oc1ccc(Cl)cc1Cl)S(=O)(=O)C(F)(F)F` [Compound 76], the “Ctenocephalides felis Mortality (%) 24 h” value stood at 3%.
Still for that read-out and setting: under `N#Cc1ccc(NS(=O)(=O)C(F)(F)F)c(Oc2ccc(Cl)cc2)c1` [Compound 51] stands 10%; under `N#Cc1ccc(NS(=O)(=O)C(F)(F)F)c(Oc2ccccc2F)c1` [Compound 53], 9%; under `O=S(=O)(Nc1ccc(Cl)cc1Oc1cc(Cl)ccc1Cl)C(F)(F)F` [Compound 69], 58%.
On to `COc1cccc(Oc2cc(Cl)ccc2NS(=O)(=O)C(F)(F)F)c1` [Compound 58], for which the “Ctenocephalides felis Mortality (%) 24 h” value is reported as 87%.
Still for that read-out and setting: the result for `CC(C)(C)C(=O)OCN(c1cccc(Oc2ccccc2)c1)S(=O)(=O)C(F)(F)F` [m5] reads 72%; that for `O=S(=O)(Nc1ccc(Cl)cc1Oc1ccc(Oc2ccccc2)cc1)C(F)(F)F` [Compound 47], 36%; that for `CN(c1cccc(Oc2ccccc2)c1)S(=O)(=O)C(F)(F)F` [m2], 88%.
